Data reported in the NIST ThermoML archive (doi:10.1016/j.jct.2004.10.005).

Assay: molar heat capacity at saturation pressure
Conditions: Vacuum adiabatic calorimetry

BrC12CC3CC(CC(C3)C1)C2 [1-bromotricyclo[3.3.1.1(3,7)]decane]
Conditions	molar heat capacity [J/K/mol]
127.91 K, Crystal 3	86.56
131.28 K, Crystal 3	88.26
134.63 K, Crystal 3	90.38
137.93 K, Crystal 3	91.96
141.17 K, Crystal 3	93.89
144.35 K, Crystal 3	95.86
147.49 K, Crystal 3	97.33
150.64 K, Crystal 3	99.37
153.81 K, Crystal 3	101.4
156.99 K, Crystal 3	103
160.16 K, Crystal 3	104.9
160.53 K, Crystal 3	105.5
163.7 K, Crystal 3	107.4
166.86 K, Crystal 3	109.4
169.99 K, Crystal 3	111.2
173.09 K, Crystal 3	113.3
176.19 K, Crystal 3	115.1
179.34 K, Crystal 3	117.2
182.56 K, Crystal 3	119.4
185.78 K, Crystal 3	121.5
189.07 K, Crystal 3	123.6
192.43 K, Crystal 3	126.2
195.86 K, Crystal 3	128.7
199.38 K, Crystal 3	130.9
202.85 K, Crystal 3	133.7
206.29 K, Crystal 3	135.9
209.76 K, Crystal 3	138.8
213.19 K, Crystal 3	141.4
216.58 K, Crystal 3	143.7
220.01 K, Crystal 3	146.7
223.4 K, Crystal 3	149.2
226.82 K, Crystal 3	152.2
230.32 K, Crystal 3	155.2
230.97 K, Crystal 3	155.8
234.32 K, Crystal 3	158.8
237.7 K, Crystal 3	162.3
241 K, Crystal 3	166.2
241.09 K, Crystal 3	165.9
244.38 K, Crystal 3	169.3
244.57 K, Crystal 3	169.7
247.65 K, Crystal 3	173
248.16 K, Crystal 3	173.6
251.11 K, Crystal 3	177.1
251.71 K, Crystal 3	177.8
254.61 K, Crystal 3	181.5
255.15 K, Crystal 3	182.1
257.99 K, Crystal 3	186.2
258.5 K, Crystal 3	187.1
261.32 K, Crystal 3	192.1
261.93 K, Crystal 3	193.3
264.6 K, Crystal 3	198.2
265.32 K, Crystal 3	200.1
267.83 K, Crystal 3	205.5
268.59 K, Crystal 3	207.2
271.04 K, Crystal 3	214.7
271.85 K, Crystal 3	217.2
274.2 K, Crystal 3	227.6
275.09 K, Crystal 3	231.6
277.23 K, Crystal 3	248.5
278.12 K, Crystal 3	258.4
279.76 K, Crystal 3	284.9
280.08 K, Crystal 3	308.9
280.17 K, Crystal 3	297.9
280.56 K, Crystal 3	309.4
280.94 K, Crystal 3	336.3
281.3 K, Crystal 3	377.6
281.63 K, Crystal 3	422.2
281.93 K, Crystal 3	523.4
282.18 K, Crystal 3	643.2
282.41 K, Crystal 2	586.3
282.52 K, Crystal 2	470.3
282.69 K, Crystal 2	384.2
283.04 K, Crystal 2	278.4
283.48 K, Crystal 2	248.5
283.93 K, Crystal 2	226.3
284.68 K, Crystal 2	219.3
285.09 K, Crystal 2	222.5
286.24 K, Crystal 2	214.2
288.26 K, Crystal 2	209.5
290.59 K, Crystal 2	211.1
291.43 K, Crystal 2	211.7
293.15 K, Crystal 2	212.4
294.62 K, Crystal 2	213.4
295.8 K, Crystal 2	213.7
298.44 K, Crystal 2	215.6
298.96 K, Crystal 2	215.9
301.06 K, Crystal 2	217.3
303.6 K, Crystal 2	220.7
306.07 K, Crystal 2	236.7
308.13 K, Crystal 2	437.7
312.39 K, Crystal 1	249
314.9 K, Crystal 1	250.6
314.98 K, Crystal 1	251.1
317.39 K, Crystal 1	253.5
317.63 K, Crystal 1	254
